In patent US20220117958A1, “COMPOSITIONS AND METHODS FOR INHIBITING ACSS2” (THE TRUSTEES OF THE UNIVERSITY OF PENNSYLVANIA, priority 2018, published 2022):
Values after ≈ are worked out from the molar mass of the structure shown. Values joined by “and” are separate entries in the source; they are usually repeats but may differ in a detail not shown here. Identical values can stand only once. Like-named read-outs stand apart in the source and are kept apart here. Marks after values point to notes of the source that are not given here.

Experiments:
[1] = Microsomal stability assay (half-life), rat; assay type: in vitro ADME; conditions: Rat (SD) microsomes, read-out: Microsomal stability T1/2
From the text: (§1) Table 20 provides results of in vitro and in vivo pharmacokinetics performed for each of the represented compounds.

[2] = In vivo PK, oral gavage, plasma; set-up: species or system Rat (SD)
From the text: as §1
(§2) Tables 4 and 5 depict the summary of rat plasma sample concentrations after administration of ADG I-204. FIG. 6 provides a summary of rat plasma and brain concentrations.

[3] = In vivo PK, IV dose, plasma; set-up: species or system Rat (SD); conditions: for Plasma concentration, mean / Plasma concentration, individual animal: IV 1 mg/kg
From the text: as §1, §2

[4] = Microsomal stability assay (half-life), mouse; assay type: in vitro ADME; conditions: Mouse (CD1) microsomes, read-out: Microsomal stability T1/2
From the text: as §1

[5] = In vivo PK, oral gavage, plasma; set-up: species or system Rat (SD); conditions: Rat, PO 5 mg/kg, BQL limit 1.00 ng/mL, listed as ADG I-206, 5 mg/kg
[6] = Turbidity-based aqueous solubility; assay type: physicochemical; conditions: aqueous solution (composition not given), kinetic from dmso stock, read-out: highest soluble concentration
From the text: as §1

[7] = Microsomal stability assay (half-life), human; assay type: in vitro ADME; conditions: Human microsomes, read-out: Microsomal stability T1/2
From the text: as §1

H3K9ac = assay: Western blot, differentiated CAD cell lysates, H3K9ac levels; assay type: cell-based; conditions: differentiated CAD cells, DMSO = 100.00%
From the text: as §1

[8] = In vivo PK, IV dose, Terminal - brain (brain availability); set-up: species or system Rat (SD); conditions: for Brain concentration, mean / Brain concentration, individual animal: IV 1 mg/kg
Protocol: Table 3 and FIG. 5 depict the brain availability of ADG I-204, ADG I-205, ADG I-206, and ADG I-207 after IV administration of 1 mg/kg dose.

[9] = Protein binding via Rapid Equilibrium Dialysis - plasma; assay type: in vitro ADME; conditions: Rat (SD) plasma, 2 μM
From the text: as §1

half-life at 2 μM [1]: 6.36 min
Plasma concentration, mean ([2]; Rat (SD), PO 5 mg/kg, 24 hr, BQL = below quantitation limit (1.00 ng/mL)): BQL
Plasma concentration, individual animal ([2]; Rat, PO 5 mg/kg, 24.0 hr, BQL limit 1.00 ng/mL): BQL
concentration at 0.25 h ([2]; SD, rat, plasma, po, 5 mg/kg, Rat (SD), 0.25 hr, BQL = below quantitation limit (1.00 ng/mL), read-out: Plasma concentration, mean): 1.47 ng/mL
concentration at 0.5 h ([2]; SD, rat, plasma, po, 5 mg/kg, Rat (SD), 0.5 hr, BQL = below quantitation limit (1.00 ng/mL), read-out: Plasma concentration, mean): 2.32 ng/mL
concentration at 1 h ([2]; SD, rat, plasma, po, 5 mg/kg, Rat (SD), 1 hr, BQL = below quantitation limit (1.00 ng/mL), read-out: Plasma concentration, mean): 7.14 ng/mL
concentration at 4 h ([2]; SD, rat, plasma, po, 5 mg/kg, Rat (SD), 4 hr, BQL = below quantitation limit (1.00 ng/mL)): 12.8 ng/mL
concentration at 8 h ([2]; SD, rat, plasma, po, 5 mg/kg, Rat (SD), 8 hr, BQL = below quantitation limit (1.00 ng/mL), read-out: Plasma concentration, mean): 12.2 ng/mL
concentration at 0.25 h ([2]; SD, rat, plasma, po, 5 mg/kg, Rat, 0.250 hr, BQL limit 1.00 ng/mL, read-out: Plasma concentration, individual animal): 1.47 ng/mL
concentration at 0.5 h ([2]; SD, rat, plasma, po, 5 mg/kg, Rat, 0.500 hr, BQL limit 1.00 ng/mL, read-out: Plasma concentration, individual animal): 2.86 ng/mL
concentration at 1 h ([2]; SD, rat, plasma, po, 5 mg/kg, Rat, 1.00 hr, BQL limit 1.00 ng/mL, read-out: Plasma concentration, individual animal): 5.47 ng/mL
concentration at 8 h ([2]; SD, rat, plasma, po, 5 mg/kg, Rat, 8.00 hr, BQL limit 1.00 ng/mL, read-out: Plasma concentration, individual animal): 15.6 ng/mL
Plasma concentration, mean ([3]; Rat (SD), 8 hr, terminal, listed as ADG I-206, 1 mg/kg): 5 ng/mL
Plasma concentration, mean ([3]; Rat (SD), 24 hr, terminal, BQL limit 1.00 ng/mL (ADG I-205: 2.00 ng/mL)): BQL
Plasma concentration, individual animal ([3]; Rat, 0.500 hr, not terminal (animals 4, 5 and 6), listed as ADG I-206, 1 mg/kg): 7310** ng/mL and 527 ng/mL and 507 ng/mL
Plasma concentration, individual animal ([3]; Rat, 1.00 hr, terminal, listed as ADG I-206, 1 mg/kg): 177 ng/mL and 142 ng/mL
Plasma concentration, individual animal ([3]; Rat, 4.00 hr, terminal, BQL limit 1.00 ng/mL (ADG I-205: 2.00 ng/mL), listed as ADG I-206, 1 mg/kg): 4.19 ng/mL and 1.81 ng/mL
Plasma concentration, individual animal ([3]; Rat, 8.00 hr, terminal, BQL limit 1.00 ng/mL (ADG I-205: 2.00 ng/mL), listed as ADG I-206, 1 mg/kg): BQL and 1.44 ng/mL and 8.52 ng/mL
Plasma concentration, individual animal ([3]; Rat, 24.0 hr, terminal, BQL limit 1.00 ng/mL (ADG I-205: 2.00 ng/mL)): BQL
concentration at 0.083 h ([3]; SD, rat, plasma, iv, 1 mg/kg, Rat (SD), 0.083 hr, terminal, read-out: Plasma concentration, mean): 1090 ng/mL
concentration at 0.5 h ([3]; SD, rat, plasma, iv, 1 mg/kg, Rat (SD), 0.500 hr, not a terminal time point (animals 4, 5 and 6)): 2780 ng/mL
concentration at 1 h ([3]; SD, rat, plasma, iv, 1 mg/kg, Rat (SD), 1 hr, terminal, read-out: Plasma concentration, mean): 165 ng/mL
concentration at 4 h ([3]; SD, rat, plasma, iv, 1 mg/kg, Rat (SD), 4 hr, terminal, read-out: Plasma concentration, mean): 3 ng/mL
concentration at 8 h ([3]; SD, rat, plasma, iv, 1 mg/kg, Rat (SD), 8 hr, terminal, read-out: Plasma concentration, mean): 4.98 ng/mL
concentration at 1 h ([3]; SD, rat, plasma, iv, 1 mg/kg, Rat, 1.00 hr, terminal, read-out: Plasma concentration, individual animal): 176 ng/mL
half-life at 2 μM [4]: 4.39 min
Plasma concentration, individual animal ([5]; 0.250 hr): BQL
Plasma concentration, individual animal ([5]; 0.500 hr): 2.16 ng/mL and 1.93 ng/mL
Plasma concentration, individual animal ([5]; 1.00 hr): 9.00 ng/mL and 6.94 ng/mL
Plasma concentration, individual animal ([5]; 4.00 hr): 17.2 ng/mL and 8.32 ng/mL
Plasma concentration, individual animal ([5]; 8.00 hr): 8.89 ng/mL
solubility [6]: 5 µM (≈ 1.83 µg/mL)
half-life at 2 μM [7]: 43.3 min
Brain concentration, mean ([8]; Rat (SD), 1 hr, listed as ADG I-206, 1 mg/kg): 67 ng/g
Brain concentration, mean ([8]; Rat (SD), 4 hr, BQL limit 10.0 ng/g (204, 206), 20.0 ng/g (205, 207)): BQL
Brain concentration, mean ([8]; Rat (SD), 8 hr, BQL limit 10.0 ng/g (204, 206), 20.0 ng/g (205, 207)): BQL
Brain concentration, mean ([8]; Rat (SD), 24 hr, BQL limit 10.0 ng/g (204, 206), 20.0 ng/g (205, 207)): BQL
Brain concentration, individual animal ([8]; Rat, 0.0830 hr, third animal received only 70% of the test article, listed as ADG I-206, 1 mg/kg): 1080 ng/g and 1050 ng/g and 455*** ng/g
Brain concentration, individual animal ([8]; Rat, 1.00 hr, listed as ADG I-206, 1 mg/kg): 57.6 ng/g and 74.3 ng/g
Brain concentration, individual animal ([8]; Rat, 4.00 hr, BQL limit 10.0 ng/g (204, 206), 20.0 ng/g (205, 207)): BQL
Brain concentration, individual animal ([8]; Rat, 8.00 hr, BQL limit 10.0 ng/g (204, 206), 20.0 ng/g (205, 207)): BQL
Brain concentration, individual animal ([8]; Rat, 24.0 hr, BQL limit 10.0 ng/g (204, 206), 20.0 ng/g (205, 207)): BQL
concentration at 0.083 h ([8]; SD, rat, brain, iv, 1 mg/kg, Rat (SD), 0.083 hr): 862 ng/g
concentration at 1 h ([8]; SD, rat, brain, iv, 1 mg/kg, Rat (SD), 1 hr, read-out: Brain concentration, mean): 66.9 ng/g
concentration at 1 h ([8]; SD, rat, brain, iv, 1 mg/kg, Rat, 1.00 hr, read-out: Brain concentration, individual animal): 68.8 ng/g
Protein binding, plasma: % Protein free [9]: 0.6565 % Protein free
Compound: CNC(=O)Nc1ccc2nc(-c3cccs3)c(-c3cccs3)nc2c1 [ADG-206, 1-(2,3-di(thiophen-2-yl)quinoxalin-6-yl)-3-methylurea]
Plasma concentration, individual animal ([3]; Rat, 0.0830 hr, terminal, third animal received only 70% of the test article, listed as ADG I-206, 1 mg/kg): 1500 ng/mL and 1160 ng/mL and 610*** ng/mL
H3K9ac levels normalized to H3 and DMSO control (H3K9ac; 1 uM): 46.94%
H3K9ac levels normalized to H3 and DMSO control (H3K9ac; 5 uM): 35.39%
H3K9ac levels normalized to H3 and DMSO control (H3K9ac; 10 uM): 19.49%
H3K9ac levels normalized to H3 and DMSO control (H3K9ac; 20 uM): 8.45%
H3K9ac levels normalized to H3 and DMSO control (H3K9ac; 50 uM): 5.83%
H3K9ac levels normalized to H3 and DMSO control (H3K9ac; 100 uM): 1.24%
